Tested on: Staphylococcus aureus
Assay: Destruction of S. aureus cultures by aqueous chlorine dioxide solutions (plate counts)
Assay type: cell-based
Description: In this test, S. aureus cells were suspended in Butterfield's phosphate buffer diluent with a pH of 7.2. The density of each of these robust collections of S. aureus suspensions was approximately 10^7 colony-forming-units per mL (10^7 CFU/mL). […] Cell counts were made on samples recovered on Baird-Parker Agar with EY-Tellurite and incubated at 35° C. for 48 hours. […] In these test results, S. aureus survival was detected only at the most dilute chlorine dioxide solutions (0.044 ppm). […] This observation is consistent with lethality of chemical agents for destroying microorganisms being the mathematical product of the concentration of the lethal agent (C) and the time (t) of exposure, (C×t).

Structure (SMILES): [O][Cl+][O-] [chlorine dioxide]
- inactivation of the pathogens (0.044 ppm chlorine dioxide solution, exposure 24 hours): 100%
- survivors ([ClO2] 0.044 ppm, 30° C., 3-5 min exposure): 3.4% survivors
- CFU/mL × 10^−6 ([ClO2] 0.044 ppm, 30° C., 3-5 min exposure, control 3.4): 0.116 CFU/mL × 10^−6
- CFU/mL × 10^−6 ([ClO2] 0.044 ppm, exposure for 24 h): 0.00 CFU/mL × 10^−6
- CFU/mL × 10^−6 ([ClO2] 0.044 ppm, exposure over night): <1.0 × 10^−4 CFU/mL × 10^−6
- CFU/mL × 10^−6 ([ClO2] 0.44 ppm, 30° C., 3-5 min exposure, control 9.55): 0 CFU/mL × 10^−6
- CFU/mL × 10^−6 ([ClO2] 4.4 ppm, 30° C., 3-5 min exposure, control 3.4): 0.00 CFU/mL × 10^−6
- CFU/mL × 10^−6 ([ClO2] 44 ppm, 30° C., 3-5 min exposure, control 9.55): 0.00 CFU/mL × 10^−6

Source: patent US20100086623A1, “Chemical Combination for the Generation of Disinfectant and Heat” (priority 2004, published 2010)
